How the values were obtained:
[1] = anaerostipes sp., 12 h, 2 µM
Description: The drug is tested on Anaerostipes sp. strain: fecal isolate for biotransformation. The drug concentrations were measured before and after a 12-h incubation by liquid-chromatography-coupled mass spectrometry (LC–MS)

[2] = The drug is tested on Bacteroides vulgatus strain: ATCC8482 for biotransformation. The drug concentrations were measured before and after a 12-h incubation by liquid-chromatography-coupled mass spectrometry (LC–MS); conditions: phocaeicola vulgatus, 2 µM
[3] = The drug is tested on Edwardsiella tarda strain: ATCC23685 for biotransformation. The drug concentrations were measured before and after a 12-h incubation by liquid-chromatography-coupled mass spectrometry (LC–MS); conditions: 2 µM
[4] = The drug is tested on Eubacterium rectale strain: ATCC33656 for biotransformation. The drug concentrations were measured before and after a 12-h incubation by liquid-chromatography-coupled mass spectrometry (LC–MS); conditions: agathobacter rectalis, 2 µM
[5] = The drug is tested on Bacteroides fragilis strain: ATCC43859 for biotransformation. The drug concentrations were measured before and after a 12-h incubation by liquid-chromatography-coupled mass spectrometry (LC–MS); conditions: 2 µM
[6] = The drug is tested on Clostridium sp. strain: fecal isolate for biotransformation. The drug concentrations were measured before and after a 12-h incubation by liquid-chromatography-coupled mass spectrometry (LC–MS); conditions: 2 µM
[7] = The drug is tested on Bifidobacterium breve strain: DSM20213 for biotransformation. The drug concentrations were measured before and after a 12-h incubation by liquid-chromatography-coupled mass spectrometry (LC–MS); conditions: 2 µM
[8] = The drug is tested on Bacteroides uniformis strain: ATCC8492 for biotransformation. The drug concentrations were measured before and after a 12-h incubation by liquid-chromatography-coupled mass spectrometry (LC–MS); conditions: 2 µM
[9] = The drug is tested on Bacteroides xylanisolvens strain: DSM18836 for biotransformation. The drug concentrations were measured before and after a 12-h incubation by liquid-chromatography-coupled mass spectrometry (LC–MS); conditions: 2 µM
[10] = bacteroides fragilis, 12 h, 2 µM
Description: The drug is tested on Bacteroides fragilis strain: DS-208 for biotransformation. The drug concentrations were measured before and after a 12-h incubation by liquid-chromatography-coupled mass spectrometry (LC–MS)

[11] = The drug is tested on Bacteroides fragilis strain: HMW615 for biotransformation. The drug concentrations were measured before and after a 12-h incubation by liquid-chromatography-coupled mass spectrometry (LC–MS); conditions: 2 µM
[12] = The drug is tested on Alistipes indistinctus strain: DSM22520 for biotransformation. The drug concentrations were measured before and after a 12-h incubation by liquid-chromatography-coupled mass spectrometry (LC–MS); conditions: 2 µM
[13] = bacteroides fragilis, 12 h, 2 µM; remark: listed apart in the source
Description: The drug is tested on Bacteroides fragilis strain: NCTC 9343 for biotransformation. The drug concentrations were measured before and after a 12-h incubation by liquid-chromatography-coupled mass spectrometry (LC–MS)

[14] = The drug is tested on Parabacteroides merdae strain: ATCC43184 for biotransformation. The drug concentrations were measured before and after a 12-h incubation by liquid-chromatography-coupled mass spectrometry (LC–MS); conditions: 2 µM
[15] = The drug is tested on Bacteroides ovatus strain: ATCC8483 for biotransformation. The drug concentrations were measured before and after a 12-h incubation by liquid-chromatography-coupled mass spectrometry (LC–MS); conditions: 2 µM
[16] = bacteroides eggerthii, 12 h, 2 µM
Description: The drug is tested on Bacteroides eggerthii strain: DSM20697 for biotransformation. The drug concentrations were measured before and after a 12-h incubation by liquid-chromatography-coupled mass spectrometry (LC–MS)

[17] = The drug is tested on Odoribacter splanchnicus strain: fecal isolate for biotransformation. The drug concentrations were measured before and after a 12-h incubation by liquid-chromatography-coupled mass spectrometry (LC–MS); conditions: 2 µM
[18] = The drug is tested on Bacteroides cellulosilyticus strain: DSM14838 for biotransformation. The drug concentrations were measured before and after a 12-h incubation by liquid-chromatography-coupled mass spectrometry (LC–MS); conditions: 2 µM

Compound | Bacterial Biotransformation [1] | Bacterial Biotransformation [2] | Bacterial Biotransformation [3] | Bacterial Biotransformation [4] | Bacterial Biotransformation [5] | Bacterial Biotransformation [6] | Bacterial Biotransformation [7] | Bacterial Biotransformation [8] | Bacterial Biotransformation [9] | Bacterial Biotransformation [10] | Bacterial Biotransformation [11] | Bacterial Biotransformation [12] | Bacterial Biotransformation [13] | Bacterial Biotransformation [14] | Bacterial Biotransformation [15] | Bacterial Biotransformation [16] | Bacterial Biotransformation [17] | Bacterial Biotransformation [18]
CCN(CC)CCNC(=O)c1ccc(NC(C)=O)cc1 [ACECAINIDE] | Compound NOT metabolized | Compound NOT metabolized | Compound NOT metabolized | Compound NOT metabolized | Compound metabolized | Compound NOT metabolized | Compound NOT metabolized | Compound metabolized | Compound NOT metabolized | Compound NOT metabolized | Compound NOT metabolized | Compound NOT metabolized | – | – | – | – | – | –
CN(C)CCc1c[nH]c2ccc(CS(=O)(=O)N3CCCC3)cc12 [ALMOTRIPTAN] | Compound NOT metabolized | Compound NOT metabolized | Compound NOT metabolized | Compound NOT metabolized | – | Compound NOT metabolized | Compound NOT metabolized | Compound NOT metabolized | Compound NOT metabolized | Compound NOT metabolized | – | – | Compound NOT metabolized | Compound NOT metabolized | Compound NOT metabolized | Compound NOT metabolized | Compound NOT metabolized | –
NC12CC3CC(CC(C3)C1)C2 [AMANTADINE] | Compound NOT metabolized | Compound NOT metabolized | Compound NOT metabolized | Compound NOT metabolized | – | Compound NOT metabolized | Compound NOT metabolized | Compound metabolized | – | Compound metabolized | Compound NOT metabolized | – | – | Compound NOT metabolized | Compound NOT metabolized | Compound NOT metabolized | Compound NOT metabolized | Compound metabolized
CCC1(c2ccc(N)cc2)CCC(=O)NC1=O (stereo not given) [AMINOGLUTETHIMIDE] | Compound NOT metabolized | Compound NOT metabolized | Compound NOT metabolized | Compound NOT metabolized | – | – | Compound NOT metabolized | – | Compound NOT metabolized | Compound NOT metabolized | Compound NOT metabolized | – | Compound NOT metabolized | Compound NOT metabolized | Compound NOT metabolized | Compound NOT metabolized | Compound NOT metabolized | Compound NOT metabolized
CC(C)NCC(O)COc1ccc(CC(N)=O)cc1 (stereo not given) [ATENOLOL] | Compound NOT metabolized | Compound NOT metabolized | Compound NOT metabolized | Compound NOT metabolized | – | Compound NOT metabolized | Compound NOT metabolized | – | Compound NOT metabolized | – | – | – | Compound NOT metabolized | – | – | Compound NOT metabolized | – | Compound NOT metabolized
CN(C)CCOC(c1ccc(Cl)cc1)c1ccccn1.O=C(O)/C=C\C(=O)O (stereo not given) [CARBINOXAMINE MALEATE] | Compound NOT metabolized | Compound NOT metabolized | Compound NOT metabolized | – | – | Compound NOT metabolized | Compound NOT metabolized | Compound NOT metabolized | Compound NOT metabolized | Compound NOT metabolized | Compound NOT metabolized | – | Compound NOT metabolized | Compound NOT metabolized | Compound NOT metabolized | Compound NOT metabolized | Compound NOT metabolized | Compound NOT metabolized
CN/C(=N/CCSCc1nc[nH]c1C)NC#N [CIMETIDINE] | Compound NOT metabolized | – | Compound NOT metabolized | Compound NOT metabolized | – | – | Compound NOT metabolized | Compound metabolized | Compound NOT metabolized | – | – | Compound NOT metabolized | Compound NOT metabolized | Compound NOT metabolized | – | Compound NOT metabolized | – | Compound NOT metabolized
Clc1ccc(Cn2c(CN3CCCC3)nc3ccccc32)cc1 [CLEMIZOLE] | Compound NOT metabolized | Compound NOT metabolized | Compound NOT metabolized | Compound NOT metabolized | Compound NOT metabolized | – | Compound NOT metabolized | Compound NOT metabolized | Compound NOT metabolized | Compound NOT metabolized | Compound NOT metabolized | Compound NOT metabolized | – | Compound NOT metabolized | Compound NOT metabolized | Compound NOT metabolized | Compound NOT metabolized | –
C[N+]12CCC(CC1)C(OC(=O)C(O)(c1ccccc1)c1ccccc1)C2.[Br-] (stereo not given) [CLIDINIUM BROMIDE] | Compound NOT metabolized | – | Compound NOT metabolized | – | – | Compound NOT metabolized | Compound NOT metabolized | Compound NOT metabolized | Compound NOT metabolized | Compound NOT metabolized | – | – | Compound NOT metabolized | Compound NOT metabolized | Compound NOT metabolized | Compound NOT metabolized | – | –
Clc1cccc(Cl)c1N=C1NCCN1 [CLONIDINE] | Compound NOT metabolized | – | Compound NOT metabolized | Compound NOT metabolized | – | Compound NOT metabolized | Compound NOT metabolized | Compound metabolized | Compound NOT metabolized | Compound metabolized | Compound metabolized | – | Compound metabolized | Compound NOT metabolized | Compound metabolized | – | Compound metabolized | Compound NOT metabolized
COc1cc2c(c(OC)c1OC)-c1ccc(OC)c(=O)cc1[C@@H](NC(C)=O)CC2 [COLCHICINE] | Compound metabolized | Compound metabolized | Compound NOT metabolized | Compound NOT metabolized | Compound metabolized | Compound metabolized | Compound NOT metabolized | Compound metabolized | – | Compound metabolized | – | Compound NOT metabolized | Compound metabolized | Compound NOT metabolized | Compound NOT metabolized | Compound metabolized | Compound metabolized | –

Source: ChEMBL document CHEMBL5303573, “Mapping human microbiome drug metabolism by gut bacteria and their genes” (Nature, 2019)
